The structures appear in SMILES notation.

A short description of data set [1]: Pharmacokinetics in SD rats. Type of data set: in vivo. The settings on record: male, Sprague-Dawley, rat, plasma; for half-life / clearance: intravenous injection 2 mg/kg; for clearance: iv, 2 mg/kg, read-out: Plasma clearance rate. The source says:
Experimental Embodiment 6: Evaluation on the Pharmacokinetic of the Compounds in Rats
SD male rats were selected as the test animals in this study, and the drug concentration in plasma of the rats at different time points via intravenous injection or oral gastric administration of the test compound was quantitatively measured using LC/MS/MS method to evaluate the pharmacokinetic characteristics of the test compounds in rats.
Sprague Dawley (SD) rats (male, 200-300 g, 7-10 weeks old, Beijing Viton Lihua or Shanghai Slake).
A clear solution of the test compound was injected into SD rats via the tail vein (overnight fasting), or administrated orally by gavage (overnight fasting). For intravenous administration, 200 μL of jugular blood was collected via vein puncture at 0 hour (pre-dosing) and at 0.0833, 0.25, 0.5, 1, 2, 4, 6, 8 and 24 hours after dosing, which was then placed in an anticoagulation tube supplemented with EDTA-K2 (Suzuki Healthcare Medical Co., Ltd.). The mixture in the anticoagulation tube was vortexed to mix thoroughly at 4° C., and then centrifuged at 13000 rpm for 10 minutes to collect the plasma. For oral gavage administration, 200 μL of jugular blood was collected via vein puncture at 0 hour (pre-dosing) and at 0.5, 1, 2, 4, 6, 8 and 24 hours after dosing, which was then placed in an anticoagulation tube supplemented with EDTA-K2 (Suzuki Healthcare Medical Co., Ltd.). The mixture in the anticoagulation tube was vortexed to mix thoroughly, and then centrifuged at 13000 rpm for 10 minutes to collect the plasma. Plasma drug concentration was measured by LC/MS/MS method, and related pharmacokinetic parameters were calculated using WinNonlin™ Version 6.3 (Pharsight, Paul View, Calif.) pharmacokinetics software in non-room model linear logarithmic trapezoids method.

For data set [2], the target named is T1, human ETA receptor (Homo sapiens, UniProt P25101).
T1 construct: endogenously expressed human ETA receptors in SK-N-MC cells; host or cells: SK-N-MC cells
T1 sequence (P25101 21-427): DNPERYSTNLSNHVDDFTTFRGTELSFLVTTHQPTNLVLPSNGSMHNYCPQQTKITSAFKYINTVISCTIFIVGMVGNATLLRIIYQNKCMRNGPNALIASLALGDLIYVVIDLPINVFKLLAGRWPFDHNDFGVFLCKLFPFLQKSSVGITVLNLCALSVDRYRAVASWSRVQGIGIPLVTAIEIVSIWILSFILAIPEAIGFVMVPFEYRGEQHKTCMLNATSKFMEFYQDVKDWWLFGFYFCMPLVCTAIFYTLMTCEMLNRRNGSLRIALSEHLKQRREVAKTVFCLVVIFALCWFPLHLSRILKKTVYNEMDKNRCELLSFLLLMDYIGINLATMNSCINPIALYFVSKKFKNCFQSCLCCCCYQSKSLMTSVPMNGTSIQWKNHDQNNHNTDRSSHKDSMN
The data set is described as follows: In vitro antagonistic effect against human ETA receptor, Ca2+ signal in SK-N-MC cells. The class given is cell-based. As to conditions: for IC50: SK-N-MC cells, response to 1 nM endothelin-1; for ETA/ETB selectivity: ratio of ETB IC50 to ETA IC50. As for the experimental part:
Experimental Embodiment 1: In Vitro Test of Antagonistic Effect Against Human ETA Receptor
Antagonistic activity of the compounds against endogenously expressed human ETA receptors in SK-N-MC cells was evaluated by measuring the effect of compounds on the changes in cytoplasmic Ca^2+ ion signal induced by human ETA receptor agonists using fluorescence detection methods. The functional activity of the ETA receptor antagonistic effect was tested in Eurofins-Cerep SA according to current standard procedures.
1. Cells were suspended in Dulbecco's modified Eagle medium solution (DMEM, Invitrogen) supplemented with 1% FCSd, then distributed in 384-well plate (100 μL/well) at a density of 5×10^4 cells/well;
2. Probenecid in Hank's balanced salt solution (HBSS, Invitrogen) supplemented with 20 mM 4-(2-hydroxyethyl)piperazine-1-ethanesulfonic acid (Hepes, Invitrogen) (pH 7.4) was mixed with fluorescent probe (Fluo4 NW, Invitrogen), the mixture was added to each wells, then balanced with cells at 37° C. for 60 minutes, and then balanced with cells at 22° C. for 15 minutes;
3. The test plate was placed in a microplate reader (CellLux, PerkinElmer), a DMSO solution or HBSS buffer with an appropriate concentration of the test compound and the positive control was added, and 1 nM endothelin-1 or HBSS buffer (base control) was added after 5 minutes, and then the change in fluorescence intensity proportional to the concentration of Ca^2+ ions of free […] was measured;
5. Standard positive control was BQ-123, several concentrations were tested in each experiments. The data was analyzed using Prism to generate a concentration-response curve, and IC50 values of the compounds were calculated.

Data set [3] deals with T2, human ETB receptor (Homo sapiens, UniProt P24530).
T2 construct: host or cells: CHO cells
T2 sequence (P24530 27-442): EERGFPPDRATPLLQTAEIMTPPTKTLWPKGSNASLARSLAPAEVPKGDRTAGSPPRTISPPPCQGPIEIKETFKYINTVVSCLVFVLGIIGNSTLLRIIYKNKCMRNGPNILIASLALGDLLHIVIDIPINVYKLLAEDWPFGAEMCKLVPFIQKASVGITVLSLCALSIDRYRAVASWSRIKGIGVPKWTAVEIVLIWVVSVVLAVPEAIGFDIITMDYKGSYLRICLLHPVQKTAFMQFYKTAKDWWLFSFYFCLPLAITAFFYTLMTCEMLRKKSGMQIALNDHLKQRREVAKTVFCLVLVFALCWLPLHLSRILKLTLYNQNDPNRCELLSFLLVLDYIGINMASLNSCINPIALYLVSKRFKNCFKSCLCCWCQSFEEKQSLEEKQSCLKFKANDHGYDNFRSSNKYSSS
Nature of the data set: In vitro antagonistic effect against human ETB receptor, Ca2+ signal in transfected CHO cells. Type of data set: cell-based. As to conditions: response to 0.3 nM endothelin-1. The procedure:
Antagonist activity of the compound against human ETB receptors expressed in transfected CHO cells was evaluated by measuring the effect of the compound on the changes in the cytoplasmic Ca^2+ ion signal induced by human ETB receptor agonists. The functional activity of the ETB receptor antagonistic effect was tested in Eurofins-Cerep SA according to current standard procedures.
1. Cells were suspended in DMEM buffer (Invitrogen) and then distributed in 384-well plate (100 μL/well) at a density of 3×10^4 cells/well;
2. Probenecid in HBSS buffer (Invitrogen) supplemented with 20 mM Hepes (Invitrogen) (pH 7.4) was mixed with fluorescent probe (Fluo4 NW, Invitrogen), the mixture was added to each wells, then balanced with cells at 37° C. for 60 minutes, and then balanced with cells at 22° C. for 15 minutes;
3. The test plate was placed in a microplate reader (CellLux, PerkinElmer), a DMSO solution or HBSS buffer with an appropriate concentration of the test compound and the positive control was added, and 0.3 nM endothelin-1 or HBSS buffer (base control) was added after 5 minutes, and then the change in fluorescence intensity proportional to the concentration of Ca^2+ ions of […] was measured;
4. Results were shown as the percent inhibition of control response to 0.3 nM endothelin-1;
5. Standard positive control was BQ-788, several concentrations were tested in each experiments. The data was analyzed using Prism to generate a concentration-response curve, and IC50 values of the compounds were calculated.

As to `NS(=O)(=O)Nc1ncnc(OCCOc2ncc(Br)cn2)c1-c1ccc2c(c1)OCO2` [WX001], in data set [1], the half-life was 1.26 h and the clearance was under 5 mL/min/kg. For the same compound, in data set [2], 0.0028 µM corresponded to half-maximal inhibition (IC50) and the ETA/ETB selectivity is 30300. In data set [3], this compound gave a 50% inhibitory concentration (IC50) of 85 µM.

For the compound `COCCNS(=O)(=O)Nc1ncnc(OCCOc2ncc(Br)cn2)c1-c1ccc2c(c1)OCO2` [WX013], in data set [1], the half-life was 1.14 h and the clearance was under 5 mL/min/kg. In addition, the bioavailability in data set [1] (po, 10 mg/kg, oral administration 10 mg/kg) is over 70%. In data set [2], the half-maximal inhibitory concentration (IC50) came to 0.0014 µM and the ETA/ETB selectivity is given as 47100. The 50% inhibitory concentration (IC50) in data set [3] worked out at 66 µM.

As a reminder, the half-life is the time needed for the level to fall by half in the phase considered. A high value points to slow loss. What is called clearance is a measure of how efficiently the substance is removed, as volume per time. Usually IC50 stands for the midpoint of a concentration-inhibition curve. High values mean a need for much substance, low ones inhibition by little substance. As a reminder, the bioavailability is the share of a dose that reaches the circulation, judged against a reference dose that is usually intravenous. A lower bioavailability goes with poor availability.

The values above are taken from patent US11319305B2, “Pyrimidine sulfamide derivative and preparation method and medical application thereof” (SHIJIAZHUANG SAGACITY NEW DRUG DEVELOPMENT CO., LTD., priority 2017, dated 2022).
